Source: patent US5792831A, “Analogues of magainin peptides containing D-amino acids” (priority 1994, dated 1998)
≈ marks a conversion by molar mass, not a printed value. Square brackets hold non-standard residues; d marks the D form. Ends that are not written are not given here. Peptide text beside a SMILES is read from it. * marks the point of attachment. Octanoyl = CCCCCCCC(=O)*

How the values were obtained:
Type in all cases: cell-based
[1] = test system: melanoma cell line WM983A; test: Melanoma growth reduction (Example 5); conditions: for % Growth Reduction (7 days) WM-983A-2%: 2% tumor media; for % Growth Reduction (7 days) WM983A-PF: PF media
Experimental: (§1) Melanoma cell lines WM-239-A (metastatic melanoma), WM278 (primary melanoma), WM793 (primary melanoma) and WM1158 (metastatic melanoma) were seeded in 24-well plates at a concentration of 7.5×10^4 cells/ml containing 2% tumor medium.
(§2) Peptides (SEQ ID NO:6) and D-(SEQ ID NO:6), in which each amino acid residue is a D-amino residue or a glycine residue, were frozen at -20° C. in […] aliquots at a concentration of 25 mg/ml. Each peptide was then dissolved in sterile distilled water at a dilution of 1:1,000 or 1:5,000 to provide peptide concentrations of 25 μg/ml or 5 μg/ml, respectively. The peptides at the 25 μg/ml or 5 μg/ml concentrations were then added to the plates containing the melanoma cells. The amount of ^3 H-thymidine incorporation for each well was taken on days 1, 3, and 7.
(§3) Peptides (SEQ ID NO:10) and D-(SEQ ID NO:10), in which each amino acid is a D-amino acid residue, are tested for % growth reduction of melanoma cell lines WM852 (grown in 2% tumor media or PF media), WM983A (grown in 2% tumor media or PF media), WM793 (grown in 2% tumor media), and WM1985 (grown in PF media) according to the procedure of Example 4, except that only a concentration of 25 μg/ml was employed for (SEQ ID NO:10), and concentrations of 1.0, 2.5, 5.0, 10.0, and 25.0 μg/ml were employed for D-(SEQ ID NO:10).

[2] = test system: melanoma cell line WM1985; test: Melanoma growth reduction (Example 5); conditions: PF media
Experimental: as §1, §2, §3

melanoma cell line WM852 = test: Melanoma growth reduction (Example 5); conditions: for % Growth Reduction (7 days) WM852-2%: 2% tumor media; for % Growth Reduction (7 days) WM852-PF: PF media
Experimental: as §1, §2, §3

melanoma cell line WM793 = test: Melanoma growth reduction (Example 5); conditions: 2% tumor media
Experimental: as §1, §2, §3

WM793 (primary melanoma) = test: Melanoma growth reduction, 3H-thymidine incorporation (Example 4); conditions: 2% tumor medium
Experimental: as §1, §2

WM278 (primary melanoma) = test: as above; conditions: 2% tumor medium
Experimental: as §1, §2

[3] = test system: WM1158 (metastatic melanoma); test: as above; conditions: 2% tumor medium
Experimental: as §1, §2

[4] = test system: WM-239-A (metastatic melanoma); test: as above; conditions: 2% tumor medium
Experimental: as §1, §2

E. coli ATCC 25922 = test: Antibacterial MIC assay, microtiter broth dilution (NCCLS M7-T2); conditions: Mueller Hinton broth, 16-20 hours at 37° C.
Experimental: (§4) The procedure for the following antibacterial assay is based upon the guidelines of the National Committee for Clinical Laboratory Standards, Document M7-T2, Volume 8, No. 8, 1988.
(§5) were prepared at a concentration of 512 μpg/ml in sterile deionized distilled water and stored at -70° C.
(§6) 1.5×10^5 CFUs/ml of either S. aureus ATCC 25923, E. coli ATCC 25922, P. aeruginosa ATCC 27853, or C. albicans were added to the wells in full strength Mueller Hinton broth (BBL 11443) from a mid-log culture. The inoculums are standarized spectrophotometrically at 600 nm and is verified by colony counts. The plates are incubated for 16-20hours at 37° C., and the minimal inhibitory concentration (MIC) for each peptide is determined. Minimal inhibitory concentration is defined as the lowest concentration of peptide which produces a clear well in the microtiter plate.

P. aeruginosa ATCC 27853 = test: as above; conditions: Mueller Hinton broth, 16-20 hours at 37° C.
Experimental: as §4, §5, §6

S. aureus ATCC 25923 = test: as above; conditions: Mueller Hinton broth, 16-20 hours at 37° C.
Experimental: as §4, §5, §6

C. albicans = test: MIC assay, microtiter broth dilution (NCCLS M7-T2); conditions: Mueller Hinton broth, 16-20 hours at 37° C.
Experimental: as §4, §5, §6

In the case of `CC(C)C[C@@H](NC(=O)[C@@H](CCCCN)NC(=O)[C@@H](CCCCN)NC(=O)[C@@H](CC(C)C)NC(=O)[C@@H](CC(C)C)NC(=O)[C@@H](CCCCN)NC(=O)[C@@H](CCCCN)NC(=O)[C@@H](CC(C)C)NC(=O)[C@@H](CCCCN)NC(=O)[C@@H](CCCCN)NC(=O)[C@@H](CC(C)C)NC(=O)[C@@H](CC(C)C)NC(=O)[C@@H](CCCCN)NC(=O)[C@H](N)CCCCN)C(N)=O` [D-(SEQ ID NO:10)] (H-[dK][dK][dL][dL][dK][dK][dL][dK][dK][dL][dL][dK][dK][dL]-NH2), the “% Growth Reduction (7 days) WM-983A-2%” value ([1]; dose 1.0 μg/ml) is reported as 0%, the “% Growth Reduction (7 days) WM983A-PF” value ([1]; dose 1.0 μg/ml) is reported as 3.3% and the “% Growth Reduction (7 days) WM-983A-2%” value ([1]; dose 2.5 μg/ml) is reported as 0%. For the same molecule, the “% Growth Reduction (7 days) WM983A-PF” value ([1]; dose 2.5 μg/ml) was 13.9%, the “% Growth Reduction (7 days) WM-983A-2%” value ([1]; dose 5.0 μg/ml) was 0% and the “% Growth Reduction (7 days) WM983A-PF” value ([1]; dose 5.0 μg/ml) was 29.8%. The “% Growth Reduction (7 days) WM-983A-2%” value ([1]; dose 10.0 μg/ml) was 13.8%, the “% Growth Reduction (7 days) WM983A-PF” value ([1]; dose 10.0 μg/ml) was 84.9% and the “% Growth Reduction (7 days) WM-983A-2%” value ([1]; dose 25 μg/ml) was 71.3%. For the same molecule, the “% Growth Reduction (7 days) WM983A-PF” value ([1]; dose 25 μg/ml) was 90.0%, the “% Growth Reduction (7 days) WM1985-PF” value ([2]; dose 1.0 μg/ml) was 5.5% and the “% Growth Reduction (7 days) WM1985-PF” value ([2]; dose 2.5 μg/ml) was 23.6%. The “% Growth Reduction (7 days) WM1985-PF” value ([2]; dose 5.0 μg/ml) was 52.1%, the “% Growth Reduction (7 days) WM1985-PF” value ([2]; dose 10.0 μg/ml) was 84.3% and the “% Growth Reduction (7 days) WM1985-PF” value ([2]; dose 25 μg/ml) was 92.6%. For the same molecule, the “% Growth Reduction (7 days) WM852-2%” value (melanoma cell line WM852; dose 1.0 μg/ml) was 3.0%, the “% Growth Reduction (7 days) WM852-PF” value (melanoma cell line WM852; dose 1.0 μg/ml) was 2.9% and the “% Growth Reduction (7 days) WM852-2%” value (melanoma cell line WM852; dose 2.5 μg/ml) was 5.4%. The “% Growth Reduction (7 days) WM852-PF” value (melanoma cell line WM852; dose 2.5 μg/ml) was 22.9%, the “% Growth Reduction (7 days) WM852-2%” value (melanoma cell line WM852; dose 5.0 μg/ml) was 8.8% and the “% Growth Reduction (7 days) WM852-PF” value (melanoma cell line WM852; dose 5.0 μg/ml) was 32.4%. For the same molecule, the “% Growth Reduction (7 days) WM852-2%” value (melanoma cell line WM852; dose 10.0 μg/ml) was 16.2%, the “% Growth Reduction (7 days) WM852-PF” value (melanoma cell line WM852; dose 10.0 μg/ml) was 80.6% and the “% Growth Reduction (7 days) WM852-2%” value (melanoma cell line WM852; dose 25 μg/ml) was 84.7%. The “% Growth Reduction (7 days) WM852-PF” value (melanoma cell line WM852; dose 25 μg/ml) was 91.1%, the “% Growth Reduction (7 days) WM793-2%” value (melanoma cell line WM793; dose 2.5 μg/ml) was 18.2% and the “% Growth Reduction (7 days) WM793-2%” value (melanoma cell line WM793; dose 5.0 μg/ml) was 0%. The “% Growth Reduction (7 days) WM793-2%” value (melanoma cell line WM793; dose 10.0 μg/ml) was 12.3% and the “% Growth Reduction (7 days) WM793-2%” value (melanoma cell line WM793; dose 25 μg/ml) was 84.9%.

“(SEQ ID NO:6): peptide of SEQ ID NO:6, comparator not marked D; possibly the same as (SEQ ID NO:6)-NH2 (GIGKFLKSAKKFGKAFVKILNS; not fully specified) [reference compound]” was tested, and the “% Growth Reduction (7 days) WM793” value (WM793 (primary melanoma); dose 5 μg/ml) was 11.6%, the “% Growth Reduction (7 days) WM793” value (WM793 (primary melanoma); dose 25 μg/ml) was 98.0% and the “% Growth Reduction (7 days) WM-278” value (WM278 (primary melanoma); dose 5 μg/ml) was 0%. The “% Growth Reduction (7 days) WM-278” value (WM278 (primary melanoma); dose 25 μg/ml) was 96.0%, the “% Growth Reduction (7 days) WM1158” value ([3]; dose 5 μg/ml) was 0% and the “% Growth Reduction (7 days) WM1158” value ([3]; dose 25 μg/ml) was 98.5%. For the same molecule, the “% Growth Reduction (7 days) WM239-A” value ([4]; dose 5 μg/ml) was 0% and the “% Growth Reduction (7 days) WM239-A” value ([4]; dose 25 μg/ml) was 95.8%.

In the case of `CCCCCCCC(=O)N[C@@H](CC(C)C)C(=O)N[C@@H](CCCCN)C(=O)N[C@@H](CCCCN)C(=O)N[C@@H](CC(C)C)C(=O)N[C@@H](CC(C)C)C(=O)N[C@@H](CCCCN)C(=O)N[C@@H](CCCCN)C(=O)N[C@@H](CC(C)C)C(=O)N[C@@H](CCCCN)C(=O)N[C@@H](CCCCN)C(=O)N[C@@H](CC(C)C)C(N)=O` [Oct-(SEQ ID NO:11)-NH2, reference compound] (Octanoyl-LKKLLKKLKKL-NH2), the “MIC E. coli” value (E. coli ATCC 25922) is reported as 8 µg/mL (≈ 5.41 µM), the “MIC P. aeruginosa” value (P. aeruginosa ATCC 27853) is reported as 4 µg/mL (≈ 2.71 µM) and the “MIC S. aureus” value (S. aureus ATCC 25923) is reported as 4 µg/mL (≈ 2.71 µM). The “MIC C. albicans” value (C. albicans) was 32 µg/mL (≈ 21.6 µM).
